Measurements reported in ChEMBL document CHEMBL1201861, “Genomics of Drug Sensitity in Cancer screening data, Wellcome Trust Sanger Institute”.

Columns and labels:
Assay in all cases: cells
COLO-800 = assay type: functional, cell-based, Homo sapiens; settings: Homo sapiens, COLO-800;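 note: growth inhibition of COLO-800 cells, read out with a cell viability assay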
Description: SANGER: Inhibition of human COLO-800 cell growth in a cell viability assay.

CTV-1 = assay type: functional, cell-based, Homo sapiens; settings: Homo sapiens, CTV-1;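 note: growth inhibition of the cell line, read out with a cell viability assay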
Description: SANGER: Inhibition of human CTV-1 cell growth in a cell viability assay.

D283 Med = assay type: functional, cell-based, Homo sapiens; settings: Homo sapiens, D283 Med
Description: SANGER: Inhibition of human D-283MED cell growth in a cell viability assay.

DSH1 = assay type: functional, cell-based, Homo sapiens; settings: Homo sapiens, DSH1;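 note: growth inhibition of human DSH1 cells, measured with a cell viability readout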
Description: SANGER: Inhibition of human DSH1 cell growth in a cell viability assay.

EC-GI-10 = assay type: functional, cell-based, Homo sapiens; settings: Homo sapiens, EC-GI-10
Description: SANGER: Inhibition of human EC-GI-10 cell growth in a cell viability assay.

EKVX = assay type: functional, cell-based, Homo sapiens; settings: Homo sapiens, EKVX;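 note: growth inhibition of human EKVX cells, read out with a cell viability assay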
Description: SANGER: Inhibition of human EKVX cell growth in a cell viability assay.

ES3 = assay type: functional, cell-based, Homo sapiens; settings: Homo sapiens, ES3;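 note: growth inhibition of ES3 cells, read out with a cell viability assay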
Description: SANGER: Inhibition of human ES3 cell growth in a cell viability assay.

ES4 = assay type: functional, cell-based, Homo sapiens; settings: Homo sapiens, ES4;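 note: growth inhibition of human ES4 cells, read out by a cell viability assay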
Description: SANGER: Inhibition of human ES4 cell growth in a cell viability assay.

ES5 = assay type: functional, cell-based, Homo sapiens; settings: Homo sapiens, ES5;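 note: growth inhibition of human ES5 cells, read out by a cell viability assay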
Description: SANGER: Inhibition of human ES5 cell growth in a cell viability assay.

ES6 = assay type: functional, cell-based, Homo sapiens; settings: Homo sapiens, ES6;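 note: growth inhibition of human ES6 cells, read out with a cell viability assay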
Description: SANGER: Inhibition of human ES6 cell growth in a cell viability assay.

EOL1 = assay type: functional, cell-based, Homo sapiens; settings: Homo sapiens, EOL1;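 note: growth inhibition of EoL-1 cells, read out by a cell viability assay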
Description: SANGER: Inhibition of human EoL-1-cell cell growth in a cell viability assay.

HAL-01 = assay type: functional, cell-based, Homo sapiens; settings: Homo sapiens, HAL-01;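 note: growth inhibition of human HAL-01 cells, read out with a cell viability assay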
Description: SANGER: Inhibition of human HAL-01 cell growth in a cell viability assay.

HC-1 = assay type: functional, cell-based, Homo sapiens; settings: Homo sapiens, HC-1;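 note: growth inhibition of HC-1 cells measured by a cell viability assay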
Description: SANGER: Inhibition of human HC-1 cell growth in a cell viability assay.

HCC2218 = assay type: functional, cell-based, Homo sapiens; settings: Homo sapiens, HCC2218;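 note: cell viability assay read-out, with IC50 given as the concentration that inhibits growth of the cell line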
Description: SANGER: Inhibition of human HCC2218 cell growth in a cell viability assay.

HD-MY-Z = assay type: functional, cell-based, Homo sapiens; settings: Homo sapiens, HD-MY-Z;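 note: growth inhibition of HD-MY-Z cells, read out with a cell viability assay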
Description: SANGER: Inhibition of human HD-MY-Z cell growth in a cell viability assay.

HEL = assay type: functional, cell-based, Homo sapiens; settings: Homo sapiens, HEL;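 note: growth inhibition of HEL cells, read out with a cell viability assay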
Description: SANGER: Inhibition of human HEL cell growth in a cell viability assay.

J-RT3-T3-5 = assay type: functional, cell-based, Homo sapiens; settings: Homo sapiens, J-RT3-T3-5;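 note: cell viability assay measuring growth inhibition of human J-RT3-T3-5 cells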
Description: SANGER: Inhibition of human J-RT3-T3-5 cell growth in a cell viability assay.

KLE = assay type: functional, cell-based, Homo sapiens; settings: Homo sapiens, KLE;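 note: growth inhibition of human KLE cells, read out with a cell viability assay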
Description: SANGER: Inhibition of human KLE cell growth in a cell viability assay.

KM12 = assay type: functional, cell-based, Homo sapiens; settings: Homo sapiens, KM12;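 note: KM12 cell growth inhibition, read out with a cell viability assay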
Description: SANGER: Inhibition of human KM12 cell growth in a cell viability assay.

KNS-42 = assay type: functional, cell-based, Homo sapiens; settings: Homo sapiens, KNS-42;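 note: growth inhibition of KNS-42 cells, read out with a cell viability assay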
Description: SANGER: Inhibition of human KNS-42 cell growth in a cell viability assay.

KNS-81-FD = assay type: functional, cell-based, Homo sapiens; settings: Homo sapiens, KNS-81-FD;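 note: growth inhibition of KNS-81-FD cells, read out with a cell viability assay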
Description: SANGER: Inhibition of human KNS-81-FD cell growth in a cell viability assay.

KS-1 = assay type: functional, cell-based, Homo sapiens; settings: Homo sapiens, KS-1;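 note: growth inhibition of KS-1 cells, read out with a cell viability assay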
Description: SANGER: Inhibition of human KS-1 cell growth in a cell viability assay.

KY821 = assay type: functional, cell-based, Homo sapiens; settings: Homo sapiens, KY821;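 note: growth inhibition of human KY821 cells, read out by a cell viability assay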
Description: SANGER: Inhibition of human KY821 cell growth in a cell viability assay.

LB373-MEL-D = assay type: functional, cell-based, Homo sapiens; settings: Homo sapiens, LB373-MEL-D;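 note: growth inhibition of the cell line, read out in a cell viability assay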
Description: SANGER: Inhibition of human LB373-MEL-D cell growth in a cell viability assay.

LB771-HNC = assay type: functional, cell-based, Homo sapiens; settings: Homo sapiens, LB771-HNC;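 note: growth inhibition of LB771-HNC human cells, read out with a cell viability assay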
Description: SANGER: Inhibition of human LB771-HNC cell growth in a cell viability assay.

LS-1034 = assay type: functional, cell-based, Homo sapiens; settings: Homo sapiens, LS-1034
Description: SANGER: Inhibition of human LS-1034 cell growth in a cell viability assay.

LS-411N = assay type: functional, cell-based, Homo sapiens; settings: Homo sapiens, LS-411N
LU-139 = assay type: functional, cell-based, Homo sapiens; settings: Homo sapiens, LU-139
Description: SANGER: Inhibition of human LU-139 cell growth in a cell viability assay.

MFM-223 = assay type: functional, cell-based, Homo sapiens; settings: Homo sapiens, MFM-223
Description: SANGER: Inhibition of human MFM-223 cell growth in a cell viability assay.

MOLT-16 = assay type: functional, cell-based, Homo sapiens; settings: Homo sapiens, MOLT-16;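 note: growth inhibition of human MOLT-16 cells, read out with a cell viability assay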
Description: SANGER: Inhibition of human MOLT-16 cell growth in a cell viability assay.

MV4-11 = assay type: functional, cell-based, Homo sapiens, MV-4-11; settings: Homo sapiens, MV4-11;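 note: cell viability readout measuring growth inhibition of human MV-4-11 cells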
Description: SANGER: Inhibition of human MV-4-11 cell growth in a cell viability assay.

NCI-H1838 = assay type: functional, cell-based, Homo sapiens; settings: Homo sapiens, NCI-H1838;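 note: growth inhibition of NCI-H1838 cells, determined with a cell viability readout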
Description: SANGER: Inhibition of human NCI-H1838 cell growth in a cell viability assay.

NCI-H226 = assay type: functional, cell-based, Homo sapiens; settings: Homo sapiens, NCI-H226;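 note: cell viability read-out used to gauge growth inhibition of the cells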
Description: SANGER: Inhibition of human NCI-H226 cell growth in a cell viability assay.

NCI-H69 = assay type: functional, cell-based, Homo sapiens; settings: Homo sapiens, NCI-H69;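 note: growth inhibition of the cell line, read out with a cell viability assay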
Description: SANGER: Inhibition of human NCI-H69 cell growth in a cell viability assay.

NCI-H720 = assay type: functional, cell-based, Homo sapiens; settings: Homo sapiens, NCI-H720;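 note: growth inhibition of human NCI-H720 cells determined by a cell viability assay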
Description: SANGER: Inhibition of human NCI-H720 cell growth in a cell viability assay.

SNU1 = assay type: functional, cell-based, Homo sapiens; settings: Homo sapiens, SNU1;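 note: growth inhibition of human NCI-SNU-1 cells, measured with a cell viability assay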
Description: SANGER: Inhibition of human NCI-SNU-1 cell growth in a cell viability assay.

NOS-1 = assay type: functional, cell-based, Homo sapiens; settings: Homo sapiens, NOS-1;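 note: growth inhibition of the human NOS-1 cell line, read out with a cell viability assay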
Description: SANGER: Inhibition of human NOS-1 cell growth in a cell viability assay.

NTERA-2-cl-D1 = assay type: functional, cell-based, Homo sapiens; settings: Homo sapiens, NTERA-2-cl-D1;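 note: inhibition of cell growth, measured with a cell viability assay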
Description: SANGER: Inhibition of human NTERA-S-cl-D1 cell growth in a cell viability assay.

SJSA-1 = assay type: functional, cell-based, Homo sapiens; settings: Homo sapiens, SJSA-1;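 note: growth inhibition of human SJSA-1 cells, read out through a cell viability measurement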
Description: SANGER: Inhibition of human SJSA-1 cell growth in a cell viability assay.

SK-LMS-1 = assay type: functional, cell-based, Homo sapiens; settings: Homo sapiens, SK-LMS-1;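 note: growth inhibition of human SK-LMS-1 cells, read out with a cell viability assay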
Description: SANGER: Inhibition of human SK-LMS-1 cell growth in a cell viability assay.

SK-NEP-1 = assay type: functional, cell-based, Homo sapiens; settings: Homo sapiens, SK-NEP-1;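 note: growth inhibition of human SK-NEP-1 cells, read out by a cell viability assay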
Description: SANGER: Inhibition of human SK-NEP-1 cell growth in a cell viability assay.

SW684 = assay type: functional, cell-based, Homo sapiens; settings: Homo sapiens, SW684;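 note: growth inhibition of human SW684 cells, measured by a cell viability assay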
Description: SANGER: Inhibition of human SW684 cell growth in a cell viability assay.

A3-KAW = assay type: functional, cell-based, Homo sapiens; settings: Homo sapiens, A3-KAW;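 note: growth inhibition of human A3-KAW cells, read out with a cell viability assay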
Description: SANGER: Inhibition of human A3-KAW cell growth in a cell viability assay.

ATN-1 = assay type: functional, cell-based, Homo sapiens; settings: Homo sapiens, ATN-1;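 note: growth inhibition of human ATN-1 cells, read out with a cell viability assay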
Description: SANGER: Inhibition of human ATN-1 cell growth in a cell viability assay.

TE-10 = assay type: functional, cell-based, Homo sapiens; settings: Homo sapiens, TE-10;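 note: growth inhibition of TE-10 cells, measured by a cell viability assay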
Description: SANGER: Inhibition of human TE-10 cell growth in a cell viability assay.

TE-11 = assay type: functional, cell-based, Homo sapiens; settings: Homo sapiens, TE-11;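 note: growth inhibition of human TE-11 cells, read out by a cell viability assay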
Description: SANGER: Inhibition of human TE-11 cell growth in a cell viability assay.

TK-10 = assay type: functional, cell-based, Homo sapiens; settings: Homo sapiens, TK-10;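 note: growth inhibition of TK-10 cells, read out in a cell viability assay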
Description: SANGER: Inhibition of human TK10 cell growth in a cell viability assay.

CAS-1 = assay type: functional, cell-based, Homo sapiens; settings: Homo sapiens, CAS-1;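 note: growth inhibition of CAS-1 cells, measured with a cell viability assay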
Description: SANGER: Inhibition of human CAS-1 cell growth in a cell viability assay.

COLO-684 = assay type: functional, cell-based, Homo sapiens; settings: Homo sapiens, COLO-684
Description: SANGER: Inhibition of human COLO-684 cell growth in a cell viability assay.

COc1cccc2c1C(=O)c1c(O)c3c(c(O)c1C2=O)C[C@@](O)(C(=O)CO)C[C@@H]3O[C@H]1C[C@H](N)[C@H](O)[C@H](C)O1 [DOXORUBICIN]
IC50 (COLO-800): 0.172 µM | IC50 (CTV-1): 0.0161 µM | IC50 (D283 Med): 0.25 µM | IC50 (DSH1): 0.373 µM | IC50 (EC-GI-10): > 1.02 µM | IC50 (EKVX): 0.872 µM | IC50 (ES3): 0.0895 µM | IC50 (ES4): 0.00611 µM | IC50 (ES5): 0.0392 µM | IC50 (ES6): 0.137 µM | IC50 (EOL1): 0.0278 µM | IC50 (HAL-01): 0.313 µM | IC50 (HC-1): 0.0373 µM | IC50 (HCC2218): 0.182 µM | IC50 (HD-MY-Z): 0.273 µM | IC50 (HEL): 0.175 µM | IC50 (J-RT3-T3-5): 0.0963 µM | IC50 (KLE): 0.175 µM | IC50 (KM12): 0.218 µM | IC50 (KNS-42): 0.243 µM | IC50 (KNS-81-FD): 0.16 µM | IC50 (KS-1): 0.00344 µM | IC50 (KY821): > 1.02 µM | IC50 (LB373-MEL-D): 0.345 µM | IC50 (LB771-HNC): > 1.02 µM | IC50 (LS-1034): 0.385 µM | IC50 (LS-411N): 0.0991 µM | IC50 (LU-139): 0.345 µM | IC50 (MFM-223): > 1.02 µM | IC50 (MOLT-16): 0.29 µM | IC50 (MV4-11): 0.01 µM | IC50 (NCI-H1838): 0.405 µM | IC50 (NCI-H226): 0.417 µM | IC50 (NCI-H69): 0.569 µM | IC50 (NCI-H720): > 1.02 µM | IC50 (SNU1): 0.0659 µM | IC50 (NOS-1): 0.0791 µM | IC50 (NTERA-2-cl-D1): 0.00137 µM | IC50 (SJSA-1): 0.111 µM | IC50 (SK-LMS-1): 0.0532 µM | IC50 (SK-NEP-1): 0.116 µM | IC50 (SW684): > 1.02 µM | IC50 (A3-KAW): 0.0401 µM | IC50 (ATN-1): 0.128 µM | IC50 (TE-10): 0.113 µM | IC50 (TE-11): 0.241 µM | IC50 (TK-10): 0.115 µM | IC50 (CAS-1): 0.238 µM | IC50 (COLO-684): 0.22 µM

Nc1ccn([C@@H]2O[C@H](CO)[C@@H](O)C2(F)F)c(=O)n1 [GEMCITABINE]
IC50 (COLO-800): 0.0406 µM | IC50 (CTV-1): 0.0141 µM | IC50 (D283 Med): 0.127 µM | IC50 (DSH1): 0.0965 µM | IC50 (EC-GI-10): > 1.02 µM | IC50 (EKVX): > 1.02 µM | IC50 (ES3): 0.0446 µM | IC50 (ES4): < 0.004 µM | IC50 (ES5): > 1.02 µM | IC50 (ES6): < 0.004 µM | IC50 (EOL1): < 0.004 µM | IC50 (HAL-01): 0.0082 µM | IC50 (HC-1): < 0.004 µM | IC50 (HCC2218): > 1.02 µM | IC50 (HD-MY-Z): 0.00668 µM | IC50 (HEL): 0.00179 µM | IC50 (J-RT3-T3-5): 0.0672 µM | IC50 (KLE): 0.459 µM | IC50 (KM12): 0.0915 µM | IC50 (KNS-42): 0.736 µM | IC50 (KNS-81-FD): > 1.02 µM | IC50 (KS-1): 0.167 µM | IC50 (KY821): > 1.02 µM | IC50 (LB373-MEL-D): > 1.02 µM | IC50 (LB771-HNC): > 1.02 µM | IC50 (LS-1034): > 1.02 µM | IC50 (LS-411N): 0.0299 µM | IC50 (LU-139): 0.0146 µM | IC50 (MFM-223): > 1.02 µM | IC50 (MOLT-16): 0.0431 µM | IC50 (MV4-11): < 0.004 µM | IC50 (NCI-H1838): > 1.02 µM | IC50 (NCI-H226): 0.317 µM | IC50 (NCI-H69): 0.459 µM | IC50 (NCI-H720): > 1.02 µM | IC50 (SNU1): < 0.004 µM | IC50 (NOS-1): 0.0324 µM | IC50 (NTERA-2-cl-D1): 0.00164 µM | IC50 (SJSA-1): 0.195 µM | IC50 (SK-LMS-1): < 0.004 µM | IC50 (SK-NEP-1): 0.0229 µM | IC50 (SW684): > 1.02 µM | IC50 (A3-KAW): < 0.004 µM | IC50 (ATN-1): < 0.004 µM | IC50 (TE-10): 0.0162 µM | IC50 (TE-11): > 1.02 µM | IC50 (TK-10): 0.0145 µM | IC50 (CAS-1): 0.955 µM | IC50 (COLO-684): 0.0264 µM
